In patent publication US6399614B1, “1-(N-phenylaminoalkyl)piperazine derivatives substituted at position 2 of the phenyl ring” (Recordati S.A. Chemical and Pharmaceutical Company, priority 1997, dated 2002):

What follows are compounds tested against T1, human 5-HT1A serotonergic receptor (Homo sapiens, UniProt P08908) (assay: Radioreceptor binding, recombinant human 5-HT1A receptors ([3H]8-OH-DPAT, HeLa membranes)). Details: recombinant human receptor, [3H]8-OH-DPAT; Ki from IC50 by Cheng & Prusoff; read-out: Binding affinity for the 5-HT1A receptor, Ki.
T1 construct: expressed in transfected cells; host or cells: HeLa
T1 sequence (P08908 1-422): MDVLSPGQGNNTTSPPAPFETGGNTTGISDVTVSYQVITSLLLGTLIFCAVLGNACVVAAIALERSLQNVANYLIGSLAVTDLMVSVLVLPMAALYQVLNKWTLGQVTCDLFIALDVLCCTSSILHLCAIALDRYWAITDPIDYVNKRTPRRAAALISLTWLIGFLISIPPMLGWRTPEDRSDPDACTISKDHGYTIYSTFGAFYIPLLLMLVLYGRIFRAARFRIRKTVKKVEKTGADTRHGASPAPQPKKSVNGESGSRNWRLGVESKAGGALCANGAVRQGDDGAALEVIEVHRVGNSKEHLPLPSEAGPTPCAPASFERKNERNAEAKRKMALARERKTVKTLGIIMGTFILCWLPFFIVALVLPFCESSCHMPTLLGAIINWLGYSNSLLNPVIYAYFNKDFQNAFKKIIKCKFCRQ
Experimental: Genomic clone G-21 coding for the human 5-HT1A serotonergic receptor is stably transfected in a human cell line (HeLa). HeLa cells were grown as monolayers in Dulbecco's modified Eagle's medium (DMEM), supplemented with 10% fetal calf serum and gentamicin ([…]), 5% CO2 at 37° C. Cells were detached from the growth flask at 95% confluence by a cell scraper and were lysed in ice-cold 5 mM Tris and 5 mM EDTA buffer (pH 7.4). Homogenates were centrifuged at 40000×g×20 min and pellets were resuspended in a small volume of ice-cold 5 mM Tris and 5 mM EDTA buffer (pH 7.4) and immediately frozen and stored at −70° C. until use. On the day of experiment, cell membranes were resuspended in binding buffer: 50 mM Tris HCl (pH 7.4), 2.5 mM MgCl2, 10 μM pargiline (Fargin et al., Nature 335, 358-360, 1988). Membranes were incubated in a final volume of 1 ml for 30 min at 30° C. with 0.2-1 nM [3H]8-OH-DPAT, in absence or presence of competing drugs; non-specific binding was determined in the presence of 10 μM 5-HT. The incubation was stopped by addition of ice-cold Tris-HCl buffer and rapid filtration through 0.2% polyethyleneimine pretreated Whatman GF/B or Schleicher & Schuell GF52 filters.
The inhibition of specific binding of the radioligands by the tested drugs was analyzed to estimate the IC50 value by using the non-linear curve-fitting program Allfit (De Lean et al., Am. J. Physiol. 235, E97-E102, 1978). The IC50 value was converted to an affinity constant (Ki) by the equation of Cheng & Prusoff (Cheng, Y. C.; Prusoff, W. H. Biochem. Pharmacol. 22, 3099-3108, 1973).

Row | Ki [nM] | SMILES
1 | 2.65 | COc1ccccc1N1CCN(CCN(C(=O)C2(C)CCCCC2)c2ccccc2[N+](=O)[O-])CC1 [Example 39, 1-[N-(2-nitrophenyl)-N-(1-methylcyclohexylcarbonyl)-2-aminoethyl]-4-(2-methoxyphenyl)piperazine]
2 | 1.16 | FC(F)(F)Oc1ccccc1NCCN1CCN(c2cccc3[nH]ccc23)CC1 [Example 50, 1-[N-(2-trifluoromethoxyphenyl)-2-aminoethyl]-4-(4-indolyl)piperazine]
3 | 34 | COc1ccccc1N1CCN(CC(C)Nc2ccccc2[N+](=O)[O-])CC1 (stereo not shown) [Example 52, 1-[N-(2-nitrophenyl)-2-aminopropyl]-4-(2-methoxyphenyl)piperazine]
4 | 4.77 | O=[N+]([O-])c1ccccc1NCCN1CCN(c2cccc3[nH]ccc23)CC1 [Example 12, 1-[N-(2-nitrophenyl)-2-aminoethyl]-4-(4-indolyl)piperazine]
5 | 1.03 | CS(=O)(=O)Nc1ccccc1N(CCN1CCN(c2cccc3[nH]ccc23)CC1)C(=O)C1CCCCC1 [Example 88, 1-[N-cyclohexylcarbonyl-N-(2-methanesulphonylaminophenyl)-2-aminoethyl]-4-(4-indolyl)piperazine]
6 | 3.82 | COc1ccccc1N1CCN(CCNc2ccccc2I)CC1 [Example 7, 1-[N-(2-iodophenyl)-2-aminoethyl]-4-(2-methoxyphenyl)piperazine]
7 | 2.44 | COc1cc(NC(=O)C(F)(F)F)ccc1N1CCN(CCN(C(=O)C2CCCCC2)c2ccccc2OC(F)(F)F)CC1 [Example 58, 1-[N-cyclohexylcarbonyl-N-(2-trifluoromethoxyphenyl)-2-aminoethyl]-4-(4-trifluoroacetylamino-2-methoxyphenyl)piperazine]
8 | 16.3 | COc1ccccc1N1CCN(CCN(C(=O)c2cccs2)c2ccccc2[N+](=O)[O-])CC1 [Example 34, 1-[N-(2-nitrophenyl)-N-(2-thiophenecarbonyl)-2-aminoethyl]-4-(2-methoxyphenyl)piperazine]
9 | 19.4 | COc1ccccc1N1CCN(CCN(C(=O)c2ccoc2)c2ccccc2[N+](=O)[O-])CC1 [Example 32, 1-[N-(2-nitrophenyl)-N-(3-furylcarbonyl)-2-aminoethyl]-4-(2-methoxyphenyl)piperazine]
10 | 18.6 | COc1cc([N+](=O)[O-])ccc1N1CCN(CCN(C(=O)C2CCCCC2)c2ccccc2OCC(F)(F)F)CC1 [Example 65]
11 | 1.22 | O=C(C1CCCCC1)N(CCN1CCN(c2ccccc2OC(F)(F)F)CC1)c1ccccc1OC(F)(F)F [Example 72, 1-[N-cyclohexylcarbonyl-N-(2-trifluoromethoxyphenyl)-2-aminoethyl]-4-(2-trifluoromethoxyphenyl)piperazine]
12 | 18.8 | COc1ccccc1N1CCN(CCN(C(=O)C2CCCCC2)c2ccccc2NC(C)=O)CC1 [Example 28, 1-[N-(2-acetylaminophenyl)-N-cyclohexylcarbonyl-2-aminoethyl]-4-(2-methoxyphenyl)piperazine]
13 | 0.17 | COc1ccccc1N1CCN(CCN(C(=O)C2CCCCC2)c2ccccc2C(=O)OCc2ccccc2)CC1 [Example 49, 1-[N-cyclohexylcarbonyl-N-(2-benzyloxycarbonylphenyl)-2-aminoethyl]-4-(2-methoxyphenyl)piperazine]
14 | 23.2 | O=C(C1CCCCC1)N(CCN1CCN(c2cccc3c2ccn3C(=O)C2CCCCC2)CC1)c1ccccc1OC(F)(F)F [Example 84, 1-[N-cyclohexylcarbonyl-N-(2-trifluoromethoxyphenyl)-2-aminoethyl]-4-(1-cyclohexylcarbonyl-4-indolyl)piperazine]
15 | 2.21 | COc1ccccc1N1CCN(C(C)CN(C(=O)C2CCCCC2)c2ccccc2[N+](=O)[O-])CC1 (stereo not shown) [Example 45, 1-[N-(2-nitrophenyl)-N-cyclohexylcarbonyl-1-amino-2-propyl]-4-(2methoxyphenyl)piperazine]
16 | 2.69 | COc1ccccc1N1CCN(CCN(C(=O)C2CCCCC2)c2ccccc2C(F)(F)F)CC1 [Example 26, 1-[N-(2-trifluoromethylphenyl)-N-cyclohexylcarbonyl-2-aminoethyl]-4-(2-methoxyphenyl)piperazine.]
17 | 15.5 | FC(F)(F)Oc1ccccc1NCCN1CCN(c2ccccc2OC(F)(F)F)CC1 [Example 71, 1-[N-(2-trifluoromethoxyphenyl)-2-aminoethyl]-4-(2-trifluoromethoxyphenyl)piperazine]

Row | Ki [nM] | SMILES
18 | 4.76 | COc1cc(NC(C)=O)ccc1N1CCN(CCN(C(=O)C2CCCCC2)c2ccccc2OCC(F)(F)F)CC1 [Example 67]
19 | 10.3 | O=[N+]([O-])c1ccccc1NCCN1CCN(Cc2cc(Cl)ccc2Cl)CC1 [Example 14, 1-[N-(2-nitrophenyl)-2-aminoethyl)-4-(2,5-dichlorobenzyl)piperazine]
20 | 9.32 | FC(F)(F)COc1ccccc1NCCN1CCN(c2cccc3[nH]ccc23)CC1 [Example 68]
21 | 28.1 | COc1cc(NC(C)=O)ccc1N1CCN(CCN(C(=O)C2CCCCC2)c2ccccc2[N+](=O)[O-])CC1 [Example 70]
22 | 1.02 | COc1ccccc1N1CCN(CCN(C(=O)c2cnccn2)c2ccccc2[N+](=O)[O-])CC1 [Example 38, 1-[N-(2-nitrophenyl)-N-(2-pyrazinylcarbonyl)-2-aminoethyl]-4-(2-methoxyphenyl)piperazine]
23 | 0.58 | N#Cc1ccccc1N(CCN1CCN(c2ccccc2OC(F)(F)F)CC1)C(=O)C1CCCCC1 [Example 77, 1-[N-(2-cyanophenyl)-N-cyclohexylcarbonyl-2-aminoethyl]-4-(2-trifluoromethoxyphenyl)piperazine]
24 | 6.05 | COc1ccccc1N1CCN(CCN(C(=O)C2CCCCC2)c2ccccc2NS(C)(=O)=O)CC1 [Example 46, 1-[N-cyclohexylcarbonyl-N-(2-methanesulphonylaminophenyl)-2-aminoethyl]-4-(2-methoxyphenyl)piperazine]
25 | 0.64 | COc1ccccc1N1CCN(CCN(C(=O)C2CCCCC2)c2ccccc2OC(F)(F)F)CC1 [Example 4, 1-[N-(2-trifluoromethoxyphenyl)-N-cyclohexylcarbonyl-2-aminoethyl]-4-(2-methoxyphenyl)piperazine]
26 | 14.8 | COc1ccccc1N1CCN(CCNc2ccccc2Oc2ccccc2)CC1 [Example 5, 1-[N-(2-phenoxyphenyl)-2-aminoethyl]-4-(2-methoxyphenyl)piperazine.3HCl]
27 | 10.8 | COc1cc([N+](=O)[O-])ccc1N1CCN(CCN(C(=O)C2CCCCC2)c2ccccc2OC(F)(F)F)CC1 [Example 55, 1-[N-cyclohexylcarbonyl-N-(2-trifluoromethoxyphenyl)-2-aminoethyl]-^4-(2-methoxy-4-nitrophenyl)piperazine]
28 | 7.96 | COc1ccccc1[N+]1([O-])CCN(CCN(C(=O)C2CCCCC2)c2ccccc2[N+](=O)[O-])CC1 [Example 30, 1-[N-(2-nitrophenyl)-N-cyclohexylcarbonyl-2-aminoethyl]-4-(2-methoxyphenyl)piperazine N^4-oxide]
29 | 0.69 | O=C(C1CCCCC1)N(CCN1CCN(c2cccc3[nH]ccc23)CC1)c1ccccc1I [Example 76, 1-[N-cyclohexylcarbonyl-N-(2-iodophenyl)-2-aminoethyl]-4-(4-indolyl)piperazine]
30 | 8.91 | CCNC(=O)c1ccccc1N(CCN1CCN(c2ccccc2OC)CC1)C(=O)C1CCCCC1 [Example 25, 1-[N-(2-ethylaminocarbonylphenyl)-N-cyclohexylcarbonyl-2-aminoethyl]-4-(2-methoxyphenyl)piperazine]
31 | 20.2 | COC(=O)c1ccccc1NCCN1CCN(c2ccccc2OC)CC1 [Example 17, 1-[N-(2-methoxycarbonylphenyl)-2-aminoethyl]-4-(2-methoxyphenyl)piperazine]
32 | 2.9 | COc1ccccc1N1CCN(CCN(C(=O)C2CCCCC2)c2ccccc2C(=O)NC(=O)C2CCCCC2)CC1 [Example 16, 1-[N-(2-cyclohexylcarbonylaminocarbonylphenyl)-N-cyclohexylcarbonyl-2-aminoethyl]-4-(2-methoxyphenyl)piperazine]
33 | 8 | COc1ccccc1N1CCN(CCN(C(=O)c2ccsc2)c2ccccc2[N+](=O)[O-])CC1 [Example 35, 1-[N-(2-nitrophenyl)-N-(3-thiophenecarbonyl)-2-aminoethyl]-4-(2-methoxyphenyl)piperazine]
34 | 11.7 | O=C(c1cnccn1)N(CCN1CCN(c2cccc3[nH]ccc23)CC1)c1ccccc1[N+](=O)[O-] [Example 53]
